Source: patent publication US20100273801A1, “BETULIN DERIVED COMPOUNDS USEFUL AS ANTIBACTERIAL AGENTS” (Valition teknillinen tutikimuskeskus, priority 2006, published 2010)
Where a name gives a salt, the structure may show the parent alone. Read-outs that look alike come from different tables or passages of the source.

Assays:
Staphylococcus aureus = test: turbidometric bacterial growth inhibition on a 96 well plate; conditions: for percent growth inhibition S. aureus 4 h / percent growth inhibition S. aureus 24 h: compound 1 mg/ml; for inhibition at 0.1 µg/mL / inhibition at 1 µg/mL / inhibition at 1000 µg/mL: Staphylococcus aureus
Description: (§1) The antimicrobial efficiency of betulin derived compounds against Staphylococcus aureus, Staphylococcus epidemidis, Micrococcus luteus and Bacillus subtilis was studied using a turbidometric method on a 96 well plate.
(§2) After juvenescence, suspension cultivation was prepared from the bacterial strains in the Todd-Hewitt broth. The suspension was introduced with a pipette to a 96 well plate, followed by the addition of the compound to be tested (3 parallel tests for each compound). […] Erythromycin was used as the control. Bacterial growth was monitored by measuring the absorbances of the samples at 620 nm at 0, 1, 2, 3, 4 and 24 hours. The sample plate was incubated at 37° C. in a shaker (250 rpm) between the measurements. Effects of the compounds on bacterial growth were evaluated by comparison of the growths of exposed and unexposed samples.

S. epidermidis = test: as above; conditions: for percent growth inhibition S. epidermidis 4 h / percent growth inhibition S. epidermidis 24 h: compound 1 mg/ml; for inhibition at 0.1 µg/mL / inhibition at 1 µg/mL / inhibition at 1000 µg/mL: Staphylococcus epidermidis
Description: as §1, §2

Bacillus subtilis = test: as above; conditions: for percent growth inhibition B. subtilis 4 h / percent growth inhibition B. subtilis 24 h: compound 1 mg/ml; for inhibition at 0.1 µg/mL / inhibition at 1 µg/mL / inhibition at 1000 µg/mL: Bacillus subtilis
Description: as §1, §2

Micrococcus luteus = test: as above; conditions: for percent growth inhibition M. luteus 4 h / percent growth inhibition M. luteus 24 h: compound 1 mg/ml; for inhibition at 0.1 µg/mL / inhibition at 1 µg/mL / inhibition at 1000 µg/mL: Micrococcus luteus
Description: as §1, §2

bacteria = test: antibacterial activity of compounds derived from betulin (summary statement); type: cell-based; conditions: already at a concentration of 1 μg/ml
Text: Erythromycin was used as the control.

[1] = 4 h, read-out: percent growth inhibition S. aureus 4 h
[2] = 24 h, read-out: percent growth inhibition S. aureus 24 h
[3] = 4 h, read-out: percent growth inhibition S. epidermidis 4 h
[4] = 24 h, read-out: percent growth inhibition S. epidermidis 24 h
[5] = 4 h, read-out: percent growth inhibition B. subtilis 4 h
[6] = 24 h, read-out: percent growth inhibition B. subtilis 24 h
[7] = 4 h, read-out: percent growth inhibition M. luteus 4 h
[8] = 24 h, read-out: percent growth inhibition M. luteus 24 h

Compound | percent growth inhibition S. aureus 4 h (Staphylococcus aureus; 4 h) | percent growth inhibition S. aureus 24 h (Staphylococcus aureus; 24 h) | percent growth inhibition S. epidermidis 4 h (S. epidermidis; 4 h) | percent growth inhibition S. epidermidis 24 h (S. epidermidis; 24 h) | percent growth inhibition B. subtilis 4 h (Bacillus subtilis; 4 h) | percent growth inhibition B. subtilis 24 h (Bacillus subtilis; 24 h) | percent growth inhibition M. luteus 4 h (Micrococcus luteus; 4 h) | percent growth inhibition M. luteus 24 h (Micrococcus luteus; 24 h) | further results
C=C(C)[C@@H]1CC[C@]2(COS(C)(=O)=O)CC[C@]3(C)[C@H](CC[C@@H]4[C@@]5(C)CC[C@H](OC(C)=O)C(C)(C)[C@@H]5CC[C@]43C)[C@@H]12 [Compound 25, betulin 3-acetate-28 mesylate] | 6.9% | 0.0% | 3.2% | 12.7% | 0.0% | 15.2% | 1.6% | 12.4% | 
3,28-octanedioic acid ester of betulin [Compound 10] | 0.0% | 0.0% | 0.0% | 1.7% | 0.0% | 2.6% | 0.0% | 2.7% | 
CC[C@H]1OC(=O)[C@H](C)[C@@H](O[C@H]2C[C@@](C)(OC)[C@@H](O)[C@H](C)O2)[C@H](C)[C@@H](O[C@@H]2O[C@H](C)C[C@H](N(C)C)[C@H]2O)[C@](C)(O)C[C@@H](C)C(=O)[C@H](C)[C@@H](O)[C@]1(C)O [Compound 31, erythromycin, reference compound] |  |  |  |  |  |  |  |  | inhibition at 0.1 µg/mL (Staphylococcus aureus; [1]): 53.6%; inhibition at 1 µg/mL (Staphylococcus aureus; [1]): 79.8%; inhibition at 0.1 µg/mL (Staphylococcus aureus; [2]): 11.7%; inhibition at 1 µg/mL (Staphylococcus aureus; [2]): 72.1%; inhibition at 0.1 µg/mL (S. epidermidis; [3]): 100%; inhibition at 1 µg/mL (S. epidermidis; [3]): 100%; inhibition at 0.1 µg/mL (S. epidermidis; [4]): 90.8%; inhibition at 1 µg/mL (S. epidermidis; [4]): 100%; inhibition at 0.1 µg/mL (Bacillus subtilis; [5]): 95.6%; inhibition at 1 µg/mL (Bacillus subtilis; [5]): 100%; inhibition at 0.1 µg/mL (Bacillus subtilis; [6]): 100%; inhibition at 1 µg/mL (Bacillus subtilis; [6]): 100%; inhibition at 0.1 µg/mL (Micrococcus luteus; [7]): 96.1%; inhibition at 1 µg/mL (Micrococcus luteus; [7]): 100%; inhibition at 0.1 µg/mL (Micrococcus luteus; [8]): 100%; inhibition at 1 µg/mL (Micrococcus luteus; [8]): 100%
C=C(C)[C@@H]1CC[C@]2(C(=O)NC(CC(=O)OC)C(=O)OC)CC[C@]3(C)C(CCC4[C@@]5(C)CCC(=O)C(C)(C)C5CC[C@]43C)C12 (stereo partly drawn) [Compound 8, 28-aspartate dimethylesteramide of betulonic acid] |  |  |  |  |  |  |  |  | inhibition at 1000 µg/mL (Staphylococcus aureus; [1]): 0%; inhibition at 1000 µg/mL (Staphylococcus aureus; [2]): 0%; inhibition at 1000 µg/mL (S. epidermidis; [3]): 0%; inhibition at 1000 µg/mL (S. epidermidis; [4]): 0%; inhibition at 1000 µg/mL (Bacillus subtilis; [5]): 0%; inhibition at 1000 µg/mL (Bacillus subtilis; [6]): 5.8%; inhibition at 1000 µg/mL (Micrococcus luteus; [7]): 0%; inhibition at 1000 µg/mL (Micrococcus luteus; [8]): 0%
C=C(C)[C@@H]1CC[C@]2(COC(=O)COc3cc(C(C)C)ccc3C)CC[C@]3(C)[C@H](CC[C@@H]4[C@@]5(C)CC[C@H](O)C(C)(C)[C@@H]5CC[C@]43C)[C@@H]12 [Compound 23, 28-carvacrolacetic acid ester of betulin] | 9.9% | 11.1% | 6.8% | 0.0% | 0.7% | 7.3% | 0.0% | 0.1% | 
C=C(C)[C@@H]1CC[C@]2(COC(=O)c3ccccc3NC(C)=O)CC[C@]3(C)C(CCC4[C@@]5(C)CC[C@H](O)C(C)(C)C5CC[C@]43C)C12 (stereo partly drawn) [Compound 29, 28-N-acetylanthranilic acid ester of betulin] | 102.6% | 103.4% | 66.6% | 20.2% | 100.8% | 54.6% | 89.9% | 60.5% | antibacterial activity (bacteria): considerable antibacterial activity
